Measured values taken from US6806286B2, “Pyrrolecarboxamides and pyrrolethioamides as fungicides” (Syngenta Crop Protection, Inc., priority 2000, dated 2004).

Columns and labels:
Botryts cinerea = experiment: Action against Botryts cinerea/tomato (Botrytis on tomatoes); assay type: in vivo; conditions: tomato plants cv. Roter Gnom, spray 0.002% active ingredient, inoculated two days after application, assessed after 4 days incubation
Procedure: Action Against Botryts cinerea/tomato (Botrytis on Tomatoes)
4 week old tomato plants cv. […] Two days after application tomato plants are inoculated by spraying a spore suspension (1×10^5 conidia/ml) on the test plants. After an incubation period of 4 days at 20° C. and 95% r. h. in a growth chamber the disease incidence is assessed.

Podosphaera leucotricha = experiment: Action against Podosphaera leucotricha/apple (powdery mildew on apple); assay type: in vivo; conditions: apple seedlings cv. McIntosh, spray 0.002% active ingredient, inoculated one day after application, assessed after 12 days incubation
Procedure: Action Against Podosphaera leucotricha/apple (Powdery Mildew on Apple)
5 week old apple seedlings cv. […] One day after application apple plants are inoculated by shaking plants infected with apple powdery mildew above the test plants. After an incubation period of 12 days at 22° C. and 60% r. h. under a light regime of 14/10 h (light/dark) the disease incidence is assessed.

Puenophora teres = experiment: Action against Puenophora teres/barley (net blotch on barley); assay type: in vivo; conditions: barley plants cv. Express, spray 0.002% active ingredient, inoculated two days after application, assessed 4 days after inoculation
Procedure: Action Against Puenophora teres/barley (Net Blotch on Barley)
1 week old barley plants cv. […] Two days after application barley plants are inoculated by spraying a spore suspension (3×10^4 conidia/ml) on the test plants. After an incubation period of 2 days at 20° C. and 95% r. h. plants are kept for 2 days at 20° C. and 60% r.h. in a greenhouse. The disease incidence is assessed 4 days after inoculation.

Septoria nodorum = experiment: Action against Septoria nodorum/wheat (Septoria leaf spot on wheat); assay type: in vivo; conditions: wheat plants cv. Arina, spray 0.02% active ingredient, inoculated one day after application, assessed 11 days after inoculation
Procedure: Action Against Septoria nodorum/wheat (Septoria Leaf Spot on Wheat)
1 week old wheat plants cv. […] One day after application wheat plants are inoculated by spraying a spore suspension (5×10^5 conidia/ml) on the test plants. After an incubation period of 1 day at 20° C. and 95% r. h. plants are kept for 10 days at 20° C. and 60% r.h. in a greenhouse. The disease incidence is assessed 11 days after inoculation.

Boftis cinerea = experiment: Action against Boftis cinerea/grape (Botrytis on grapes); assay type: in vivo; conditions: grape seedlings cv. Gutedel, spray 0.002% active ingredient, inoculated two days after application, assessed after 4 days incubation
Procedure: Action Against Boftis cinerea/grape (Botrytis on Grapes)
5 week old grape seedlings cv. […] Two days after application grape plants are inoculated by spraying a spore suspension (1×10^6 conidia/ml) on the test plants. After an incubation period of 4 days at 21° C. and 95% r. h. in a greenhouse the disease incidence is assessed.

Botryis cinerea = experiment: Action against Botryis cinerea/apple (Botrytis on apple fruits); assay type: in vivo, B. cinerea; conditions: apple fruit cv. Golden Delicious, 30 μl droplets 0.002% active ingredient in drilled holes, inoculated two hours after application, assessed after 7 days
Procedure: Action Against Botryis cinerea/apple (Botrytis on Apple Fruits)
In an apple fruit cv. […] Two hours after application 50 μl of a spore suspension of B. cinerea (4×10^5 conidia/ml) are pipetted on the application sites. After an incubation period of 7 days at 22° C. in a growth chamber the disease incidence is assessed.

Etysiphe graminis = experiment: Action against Etysiphe graminis/barley (powdery mildew on barley); assay type: in vivo; conditions: barley plants cv. Express, spray 0.02% active ingredient, inoculated one day after application, assessed after 6 days incubation
Procedure: Action Against Etysiphe graminis/barley (Powdery Mildew on Barley)
1 week old barley plants cv. […] One day after application barley plants are inoculated by shaking powdery mildew infected plants above the test plants. After an incubation period of 6 days at 20° C./18° C. (day/night) and 60% r. h. in a greenhouse the disease incidence is assessed.

Venturia Inaequalis = experiment: Action against Venturia inaequalis/apple (scab on apple); assay type: in vivo; conditions: apple seedlings cv. McIntosh, spray 0.02% active ingredient, inoculated one day after application, assessed after 4+4+4 days incubation
Procedure: Action Against Venturia Inaequalis/apple (Scab on Apple)
4 week old apple seedlings cv. […] One day after application apple plants are inoculated by spraying a spore suspension (4×10^5 conidia/ml) on the test plants. After an incubation period of 4 days at 21° C. and 95% r. h. the plants are placed for 4 days at 21° C. and 60% r. h. in a greenhouse. After another 4 day incubation period at 21° C. and 95% r. h. the disease incidence is assessed.

melting point [°C]	SMILES	efficacy (disease incidence) (Botryts cinerea)	efficacy (disease incidence) (Podosphaera leucotricha)	efficacy (disease incidence) (Puenophora teres)	efficacy (disease incidence) (Septoria nodorum)	efficacy (disease incidence) (Boftis cinerea)	efficacy (disease incidence) (Botryis cinerea)	efficacy (disease incidence) (Etysiphe graminis)	efficacy (disease incidence) (Venturia Inaequalis)
148 to 149	Cc1cn(C)cc1C(=O)Nc1ccccc1-c1ccc(F)cc1 [Compound 1.25]	strong efficacy	strong efficacy	strong efficacy	strong efficacy	strong efficacy	strong efficacy	strong efficacy	strong efficacy
–	CCc1cn(CC)cc1C(=O)Nc1ccccc1-c1ccc(F)cc1 [Compound 1.266]	strong efficacy	strong efficacy	strong efficacy	strong efficacy	strong efficacy	strong efficacy	strong efficacy	strong efficacy
–	CC(C)c1cn(C)cc1C(=O)Nc1ccccc1-c1ccc(Cl)cc1 [Compound 1.268]	strong efficacy	strong efficacy	strong efficacy	strong efficacy	strong efficacy	strong efficacy	strong efficacy	strong efficacy
–	CC(C)c1cn(C)cc1C(=O)Nc1ccccc1-c1ccc(F)cc1 [Compound 1.269]	strong efficacy	strong efficacy	strong efficacy	strong efficacy	strong efficacy	strong efficacy	strong efficacy	strong efficacy
–	CCn1cc(C(=O)Nc2ccccc2-c2ccc(Cl)cc2)c(C(C)C)c1 [Compound 1.271]	strong efficacy	strong efficacy	strong efficacy	strong efficacy	strong efficacy	strong efficacy	strong efficacy	strong efficacy
–	CCn1cc(C(=O)Nc2ccccc2-c2ccc(F)cc2)c(C(C)C)c1 [Compound 1.272]	strong efficacy	strong efficacy	strong efficacy	strong efficacy	strong efficacy	strong efficacy	strong efficacy	strong efficacy
–	Cc1cn(C)cc1C(=O)Nc1ccsc1-c1ccc(Cl)cc1 [Compound 2.23]	strong efficacy	strong efficacy	strong efficacy	strong efficacy	strong efficacy	strong efficacy	strong efficacy	strong efficacy
–	Cn1cc(C(=O)Nc2ccsc2-c2ccc(Cl)cc2)c(C(F)(F)C(F)(F)F)c1 [Compound 2.190]	strong efficacy	strong efficacy	strong efficacy	strong efficacy	strong efficacy	strong efficacy	strong efficacy	strong efficacy
–	Cn1cc(C(=O)Nc2ccsc2-c2ccc(F)cc2)c(C(F)(F)C(F)(F)F)c1 [Compound 2.192]	strong efficacy	strong efficacy	strong efficacy	strong efficacy	strong efficacy	strong efficacy	strong efficacy	strong efficacy
–	Cc1cn(C)cc1C(=O)Nc1snnc1-c1ccc(F)cc1 [Compound 4.12]	strong efficacy	strong efficacy	strong efficacy	strong efficacy	strong efficacy	strong efficacy	strong efficacy	strong efficacy
–	Cc1cn(C)cc1C(=O)Nc1cnccc1-c1ccc(Cl)cc1 [Compound 6.10]	strong efficacy	strong efficacy	strong efficacy	strong efficacy	strong efficacy	strong efficacy	strong efficacy	strong efficacy
–	Cc1cn(C)cc1C(=O)Nc1cnccc1-c1ccc(F)cc1 [Compound 6.12]	strong efficacy	strong efficacy	strong efficacy	strong efficacy	strong efficacy	strong efficacy	strong efficacy	strong efficacy
–	Cn1cc(C(=O)Nc2cnccc2-c2ccc(Cl)cc2)c(C2CC2)c1 [Compound 6.49]	strong efficacy	strong efficacy	strong efficacy	strong efficacy	strong efficacy	strong efficacy	strong efficacy	strong efficacy
–	Cn1cc(C(=O)Nc2cnccc2-c2ccc(F)cc2)c(C2CC2)c1 [Compound 6.51]	strong efficacy	strong efficacy	strong efficacy	strong efficacy	strong efficacy	strong efficacy	strong efficacy	strong efficacy
